We go through 38 compounds from BindingDB's records for doi:10.7270/Q2C53J9J (University of Pittsburgh, 2010).

Where only a bound is given, the exact number is not on record here.

In this assay the target is T1, Glucose-6-phosphate 1-dehydrogenase (Leuconostoc mesenteroides, UniProt P11411).
T1 sequence (P11411 whole entry): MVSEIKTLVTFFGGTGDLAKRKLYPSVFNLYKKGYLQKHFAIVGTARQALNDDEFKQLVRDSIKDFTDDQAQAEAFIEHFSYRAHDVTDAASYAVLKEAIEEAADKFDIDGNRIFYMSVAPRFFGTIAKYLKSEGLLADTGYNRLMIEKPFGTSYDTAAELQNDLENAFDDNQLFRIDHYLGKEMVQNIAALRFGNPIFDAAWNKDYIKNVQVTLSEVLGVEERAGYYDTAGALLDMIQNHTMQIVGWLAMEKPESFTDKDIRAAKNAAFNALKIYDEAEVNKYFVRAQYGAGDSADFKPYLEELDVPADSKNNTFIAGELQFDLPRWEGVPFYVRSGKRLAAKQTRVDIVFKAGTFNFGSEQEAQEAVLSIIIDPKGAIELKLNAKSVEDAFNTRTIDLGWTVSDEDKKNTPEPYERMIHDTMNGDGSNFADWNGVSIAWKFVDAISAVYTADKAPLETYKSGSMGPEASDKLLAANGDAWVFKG
As to the kind of experiment: Leuconostoc G6PDH inhibition potency, SAR follow-up, counter-screen for TbHK1 inhibitor project, biochemical, analogue series, IC50 (AID 2579). Background: The purpose of a counterscreen is to sort out artefacts and off-target activity.
For orientation: IC50 means the concentration at which inhibition is half-maximal. Low values mean higher potency, high ones lower potency. Take `CN(Cc1ccccc1)C(=O)Cn1sc2ccccc2c1=O` [N-benzyl-N-methyl-2-(3-oxo-1,2-benzothiazol-2-yl)acetamide]: the IC50 was more than 25 µM.
Then `O=c1c2cc(Br)ccc2[s+]([O-])n1-c1ccccc1` (stereo not drawn), with more than 25 µM.
Take `COc1ccc(C(=O)Nc2cc(C(=O)O)ccc2Cl)cc1` [4-chloro-3-[(4-methoxybenzoyl)amino]benzoic acid]: the IC50 is more than 25 µM.
Then `N#Cc1ccc2sn(-c3ccccc3)c(=O)c2c1` [KUC104224N], with more than 25 µM; and `Cc1ccc(-n2sc3cc(F)ccc3c2=O)c(C)c1` [2-(2,4-dimethylphenyl)-6-fluoranyl-1,2-benzothiazol-3-one], with more than 25 µM; and `O=C(Cn1sc2ccccc2c1=O)Nc1ccc(F)cc1` [N-(4-fluorophenyl)-2-(3-oxo-1,2-benzothiazol-2-yl)acetamide], with more than 25 µM.
Then `COc1ccc(C(=O)Nc2cc(Cl)ccc2C(=O)O)cn1` [4-chloranyl-2-[(6-methoxypyridin-3-yl)carbonylamino]benzoic acid], with more than 25 µM; and `COc1ccc(NC(=O)c2ccc(Cl)cc2C(=O)O)cc1` [KUC105925N], with more than 25 µM; and `COc1ccc(-c2cc3ccccc3[nH]2)cc1` [KUC105790N], with more than 25 µM.
Under `O=c1c2cccnc2sn1-c1ccccc1` [2-(Phenyl)-isothiazolo[5,4-b]pyridin-3(2H)-one] stands more than 25 µM; under `COc1ccc(C(=O)Nc2cc(Cl)ccc2C#N)cc1` [KSC-6-267], more than 25 µM; under `COc1ccc(C(=O)Nc2cc(-c3ccccc3)ccc2C(=O)O)cc1`, more than 25 µM.
Consider `CC(C)Cc1ccc(C(=O)Nc2cc(Cl)ccc2C(=O)O)cc1` [4-chloranyl-2-[[4-(2-methylpropyl)phenyl]carbonylamino]benzoic acid], for which the IC50 was more than 25 µM.
Then `CN(C)c1cccc(NC(=O)Cn2sc3ccccc3c2=O)c1` [KSC-09-148-9], with more than 25 µM; and `O=c1c2cc(F)ccc2sn1-c1ccccc1` [5-fluoranyl-2-phenyl-1,2-benzothiazol-3-one], with more than 25 µM; and `O=C(Cn1sc2ccccc2c1=O)Nc1ccc(C(F)(F)F)cc1` [KUC105341N], with more than 25 µM.
Then `O=C(Nc1cc(Cl)ccc1C(=O)O)c1ccccc1` [2-benzamido-4-chlorobenzoic acid], with more than 25 µM.
Under `CCCCCC(=O)Nc1cc(Cl)ccc1C(=O)O` [4-chloro-2-(1-oxohexylamino)benzoic acid] stands more than 25 µM.
Compound `O=C(O)c1ccc(Cl)cc1NC(=O)c1coc2ccccc12` [2-[[3-benzofuranyl(oxo)methyl]amino]-4-chlorobenzoic acid] had an IC50 of more than 25 µM.
In turn, `O=C(NCc1ccccc1)n1sc2ccccc2c1=O` [N-benzyl-3-oxo-1,2-benzothiazole-2-carboxamide] gave an IC50 of more than 25 µM.
The compound `COc1cccc(-n2sc3ccccc3c2=O)c1` [2-(3-methoxyphenyl)-1,2-benzothiazol-3-one] showed an IC50 of more than 25 µM.
On to `O=C(Nc1ccccc1)n1sc2ccccc2c1=O` [KUC105339N], for which the IC50 was more than 25 µM.
Then `CC(C(=O)Nc1ccccc1)n1sc2ccccc2c1=O` (stereo not drawn) [2-(3-keto-1,2-benzothiazol-2-yl)-N-phenyl-propionamide (9)], with more than 25 µM; and `O=C(Cn1sc2ccccc2c1=O)Nc1ccc(I)cc1` [N-(4-iodophenyl)-2-(3-oxo-1,2-benzothiazol-2-yl)acetamide], with more than 25 µM; and `O=C(Cn1sc2ccccc2c1=O)Nc1ccccc1` [KUC104122N], with more than 25 µM.
Compound `COc1ccc2c(=O)n(-c3ccccc3)sc2c1` [KUC105410N] came in with an IC50 of more than 25 µM.
`COc1ccc(C(=O)Nc2cc(Cl)ccc2-c2nnn[nH]2)cc1` [KUC105991N] gave an IC50 of more than 25 µM.
The compound `COC(=O)c1ccc(Cl)cc1NC(=O)c1ccccc1OC` [4-chloro-2-[[(2-methoxyphenyl)-oxomethyl]amino]benzoic acid methyl ester] came in with an IC50 of more than 25 µM.
Under `O=c1c2ccccc2sn1-c1ccccc1F` stands more than 25 µM; under `O=c1c2cc([N+](=O)[O-])ccc2sn1-c1ccccc1` [KUC103868N], more than 25 µM; under `O=C(Cn1sc2ccccc2c1=O)Nc1ccccc1Cl` [N-(2-chlorophenyl)-2-(3-oxidanylidene-1,2-benzothiazol-2-yl)ethanamide], more than 25 µM.
Under `O=c1c2ccc([N+](=O)[O-])cc2sn1-c1ccccc1` [6-nitro-2-phenyl-1,2-benzothiazol-3-one] stands more than 25 µM; under `CCCCCCC(=O)Nc1cc(Cl)ccc1C(=O)O` [4-chloro-2-(1-oxoheptylamino)benzoic acid], more than 25 µM.
Under `Cc1ccc(C(=O)Nc2cc(Cl)ccc2C(=O)O)c(C)c1` [4-chloro-2-[[(2,4-dimethylphenyl)-oxomethyl]amino]benzoic acid] stands more than 25 µM.
`COc1ccc(C(=O)NC(CC(=O)O)c2ccccc2)cc1` (stereo not drawn) [sodium;3-[(4-methoxybenzoyl)amino]-3-phenylpropanoate] came in with an IC50 of more than 25 µM.
Under `O=c1c(Br)csn1-c1ccc(Br)cc1` [4-bromo-2-(4-bromophenyl)-3-isothiazolone] stands more than 25 µM; under `COc1ccc(C(=O)Nc2cc(Cl)ccc2S(N)(=O)=O)cc1`, more than 25 µM.
The compound `O=C(Cn1sc2ccccc2c1=O)Nc1ccccc1F` [KSC-09-149A] came in with an IC50 of more than 25 µM.
